According to PubChem BioAssay AID588539 (The Scripps Research Institute Molecular Screening Center, 2011):

Test: subG1, G1, S, G2/M shifts, DLD-1 – cell-based, flow cytometry, propidium iodide, powder samples, counter-screen for KLF5 inhibitor project, late-stage follow-up (AID 588539)
Settings: DLD-1 cell cycle, at 10 µM; for G1 cells: G1 phase fraction; for G2/M cells: G2/M phase fraction; for S cells: S phase fraction; for subG1 cells: stronger effect = higher value

CN(C(=O)COC(=O)/C=C/c1cccc([N+](=O)[O-])c1)C1CCS(=O)(=O)C1 (stereo not drawn)
G1 cells (24 h): 39.4% | G2/M cells (24 h): 34.7% | S cells (24 h): 18.3% | subG1 cells (24 h): 8.03% | G1 cells (48 h): 27.6% | G2/M cells (48 h): 57.6% | S cells (48 h): 13% | subG1 cells (48 h): 1.86%
